According to patent US12440519B2 (Iowa State University Research Foundation, Inc., priority 2017, dated 2025):

Assays:
E. coli = tested on: E. coli
Source text: Although this is a well-established finding, the chemical-mechanistic effects of catecholamines on prokaryotes are relatively poorly understood. Neurochemical exposure has the potential not only to alter growth profiles and behavior, but it also appears to trigger the production of unique chemicals.

circular muscle = settings: read-out: EC50, induced contractions; cited from earlier work
longitudinal muscle = settings: read-out: EC50, relaxation; cited from earlier work
distal colon = settings: read-out: EC50 of maximal response; cited from earlier work
L-DOPA decarboxylase = experiment: Carbidopa inhibition of dopamine production by ML1082 in sSIM; assay type: cell-based, E. faecium; settings: strain ML1082, sSIM
Description: A L-DOPA rich diet or a commonly prescribed 100 mg dose of L-DOPA would yield a concentration of about 1.0×10^−3 M concentration in sSIM. It follows then that a tablet that has 1:10 Carbidopa:L-DOPA tablet would likely result in a Carbidopa concentration of approximately 1/10th that on the order of 1.0×10^−4M (−log [Carbidopa]=4).
The IC50 was similar to the L-DOPA concentration of 1.26×10^−3 M, a finding that may indicate a competitive inhibitory mechanism for the bacterial enzyme.

[1] = mice, L-DOPA source in feed
Description: Feed was prepared in one of two ways depending on the source of L-DOPA. […] For purified L-DOPA, 1 g of purified L-DOPA is mixed in a 1:200 ratio with the feed powder. The mixed feed is then added to additional feed powder in a 1:4 ratio, creating a 1 mg/g L-DOPA feed.
For the 12-day trial 10 mice were placed in each group of control mice given feed plus the PBS gavage, a probiotic supplemented diet of normal feed plus a 1×10^9 CFU gavage of ML1082, and a synbiotic diet of feed with 1 mg/g supplemented pure L-DOPA and a 1×10^9 CFU gavage of ML1082. Behavioral testing was performed on days 11 and 12 (see below), followed by sacrifice and sample collection for UHPLC-ECD as above.

SMILES: NCCc1ccc(O)c(O)c1 [dopamine]
- production of the dopamine-induced compound by E. coli (E. coli; LB supplied with dopamine, FIG. 6F): little if any of this compound
- chemical response of E. coli (E. coli; sSIM spiked with 0.001 M dopamine): novel chemical response
- EC50 (circular muscle): 6.3 µM
- EC50 (longitudinal muscle): 29 µM
- EC50 (distal colon): 20 µM

SMILES: C[C@@](Cc1ccc(O)c(O)c1)(NN)C(=O)O [Carbidopa]
- inhibition of dopamine production (L-DOPA decarboxylase): dose-dependent inhibition

SMILES: N[C@@H](Cc1ccc(O)c(O)c1)C(=O)O [L-DOPA, L-3,4-dihydroxyphenylalanine]
- uptake of L-DOPA into the body before conversion by the probiotic [1]: absorbed into the body before it could interact with the probiotics
